Experimental data reported in patent US8710233B2 (Gruenenthal GmbH, priority 2005, dated 2014).
Read-outs that look alike come from different tables or passages of the source.

Key:
Type in all cases: cell-based
vanilloid receptor (VR1) = target: T1, vanilloid receptor (VR1) (Homo sapiens, UniProt Q8NER1); experiment: FLIPR Ca2+ influx assay on CHO K1 cells transfected with the VR1 gene (pharmacological method II); details: for inhibition at 10 µM: CHO-K1, read-out: inhibition in percent, Ki (human) Cap.
T1 construct: expressed in transfected cells; host or cells: CHO K1 cells (ECACC), stably transfected

VR1/TRPV1 receptor = VR1/TRPV1 receptor (Homo sapiens, UniProt Q8NER1); experiment: IC50 (human) after pH stimulus; details: for inhibition in percent, IC50 (human) after pH stimulus / inhibition at 1 µM: @ 1 μM, ne = no effect
[1] = target: T2, vanilloid receptor 1 (VR1/TRPV1) of the rat species (Rattus norvegicus, UniProt O35433); experiment: FLIPR Ca2+ influx assay on rat dorsal root ganglia cells (pharmacological method I); details: for inhibition at 10 µM: read-out: inhibition in percent, Ki (rat) Cap.
T2 construct: The spinal column is removed from decapitated rats; from tissue; host or cells: primary cells dissociated from rat dorsal root ganglia
In short: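 Primary rat dorsal root ganglion cells loaded with 2 μM Fluo-4, Ca2+ influx read on FLIPR as peak fluorescence. Triplicates, at least 3 independent experiments.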

[2] = table 4, capsaicin, read-out: Ki (human) Cap.
[3] = table 4, capsaicin, read-out: Ki (rat) Cap.
[4] = read-out: inhibition in percent, IC50 (human) after pH stimulus
[5] = Table 2, displacement of capsaicin (100 nM), Cheng-Prusoff, read-out: Ki (human)
[6] = Ki (rat), Table 2, displacement of capsaicin (100 nM), Cheng-Prusoff

T1 sequence (Q8NER1 whole entry): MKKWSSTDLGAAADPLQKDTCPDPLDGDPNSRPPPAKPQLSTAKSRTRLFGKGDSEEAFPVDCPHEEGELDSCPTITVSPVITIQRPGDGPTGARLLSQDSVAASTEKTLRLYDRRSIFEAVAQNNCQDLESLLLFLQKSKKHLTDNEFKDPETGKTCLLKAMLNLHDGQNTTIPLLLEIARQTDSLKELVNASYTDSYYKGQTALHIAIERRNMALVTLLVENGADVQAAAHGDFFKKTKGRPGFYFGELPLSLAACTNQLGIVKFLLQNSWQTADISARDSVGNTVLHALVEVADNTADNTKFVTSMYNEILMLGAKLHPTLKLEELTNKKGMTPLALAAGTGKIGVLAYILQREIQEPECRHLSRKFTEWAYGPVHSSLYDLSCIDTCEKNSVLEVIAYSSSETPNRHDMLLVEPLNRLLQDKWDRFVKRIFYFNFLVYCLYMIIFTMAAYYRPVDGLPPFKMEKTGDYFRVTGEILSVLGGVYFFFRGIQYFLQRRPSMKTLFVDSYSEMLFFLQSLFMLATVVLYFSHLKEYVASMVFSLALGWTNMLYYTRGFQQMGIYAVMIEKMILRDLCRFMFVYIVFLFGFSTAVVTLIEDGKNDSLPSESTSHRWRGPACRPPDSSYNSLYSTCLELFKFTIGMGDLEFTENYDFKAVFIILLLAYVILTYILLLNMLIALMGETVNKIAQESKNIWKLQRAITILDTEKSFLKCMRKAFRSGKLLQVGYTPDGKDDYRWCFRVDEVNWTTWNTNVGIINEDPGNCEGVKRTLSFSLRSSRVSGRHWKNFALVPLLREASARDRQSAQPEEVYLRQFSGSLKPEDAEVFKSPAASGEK
Sequence of VR1/TRPV1 receptor (Q8NER1 whole entry): as above
T2 sequence (O35433 whole entry): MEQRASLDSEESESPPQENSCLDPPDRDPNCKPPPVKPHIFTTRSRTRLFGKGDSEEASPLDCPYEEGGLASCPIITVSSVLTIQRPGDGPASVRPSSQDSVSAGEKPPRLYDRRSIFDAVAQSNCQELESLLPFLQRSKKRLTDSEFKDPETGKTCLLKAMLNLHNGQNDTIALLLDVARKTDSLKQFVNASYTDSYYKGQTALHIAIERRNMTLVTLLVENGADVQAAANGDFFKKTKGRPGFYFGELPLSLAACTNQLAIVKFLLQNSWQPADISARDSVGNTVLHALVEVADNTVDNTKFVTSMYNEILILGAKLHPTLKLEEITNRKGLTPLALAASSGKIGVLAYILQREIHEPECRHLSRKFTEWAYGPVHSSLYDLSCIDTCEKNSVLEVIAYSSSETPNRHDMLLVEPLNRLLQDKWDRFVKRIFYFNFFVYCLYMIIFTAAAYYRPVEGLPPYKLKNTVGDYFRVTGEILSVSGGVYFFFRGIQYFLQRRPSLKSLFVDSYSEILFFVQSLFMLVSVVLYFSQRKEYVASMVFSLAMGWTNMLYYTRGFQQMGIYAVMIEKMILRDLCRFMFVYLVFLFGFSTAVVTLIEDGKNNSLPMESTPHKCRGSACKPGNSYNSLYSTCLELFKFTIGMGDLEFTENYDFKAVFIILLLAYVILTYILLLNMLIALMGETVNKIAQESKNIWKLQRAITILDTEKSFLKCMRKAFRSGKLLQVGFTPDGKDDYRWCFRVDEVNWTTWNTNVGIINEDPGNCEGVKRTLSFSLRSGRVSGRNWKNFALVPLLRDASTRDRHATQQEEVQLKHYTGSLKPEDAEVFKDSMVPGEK

Row | Compound | Ki (vanilloid receptor (VR1); [2]) [nM] | IC50 (VR1/TRPV1 receptor; table 4) [nM] | Ki [1, 3] [nM] | also measured
1 | CC(C(=O)NCc1ccc(C(F)(F)F)nc1NCc1ccccc1)c1ccc(NS(C)(=O)=O)c(F)c1 (stereo not shown) [Example 115, N-(2-benzylamino-6-trifluoromethyl-pyridin-3-ylmethyl)-2-(3-fluoro-4-methylsulfonamido-phenyl)-propionamide] | 15.8 | 203 | 10.9 | 
2 | Cc1cc(C(C)C(=O)NCc2ccc(C(F)(F)F)nc2OCc2ccccc2)ccc1NS(C)(=O)=O (stereo not shown) [Example 204, N-(2-benzyloxy-6-trifluoromethyl-pyridin-3-ylmethyl)-2-(4-methylsulfonamido-3-methyl-phenyl)-propionamide] | 4 | 148 | 1.6 | 
3 | CC(C(=O)NCc1ccc(C(F)(F)F)nc1N1CCN(c2ncccc2C(F)(F)F)CC1)c1ccc(NS(C)(=O)=O)c(F)c1 (stereo not shown) [Example 213, 2-(3-fluoro-4-methylsulfonamido-phenyl)-N-{6-trifluoromethyl-2-[4-(3-trifluoromethyl-pyridin-2-yl)-piperazin-1-yl]-pyridin-3-ylmethyl}-propionamide] | 2.8 |  | 2 | inhibition in percent, IC50 (human) after pH stimulus (VR1/TRPV1 receptor): 37%; inhibition at 10 µM (VR1/TRPV1 receptor; [4]): 49%
4 | CC(C(=O)NCc1ccc(C(F)(F)F)nc1Br)c1ccc(NS(C)(=O)=O)c(F)c1 (stereo not shown) [Example 6, N-((2-bromo-6-(trifluoromethyl)pyridin-3-yl)methyl)-2-(3-fluoro-4-(methylsulfonamido)phenyl)propanamide] |  |  |  | Ki (vanilloid receptor (VR1); [5]): 169 nM; IC50 (VR1/TRPV1 receptor; Table 2): 2610 nM; Ki ([1]; Table 2, displacement of capsaicin (100 nM), Cheng-Prusoff, read-out: Ki (rat)): 95 nM
5 | COc1nc(C(F)(F)F)ccc1CNC(=O)C(C)c1ccc(NS(C)(=O)=O)c(F)c1 (stereo not shown) [Example 18, 2-(3-fluoro-4-(methylsulfonamido)phenyl)-N-((2-methoxy-6-(trifluoromethyl)pyridin-3-yl)methyl)propanamide] |  |  |  | Ki (vanilloid receptor (VR1); [5]): 68.9 nM; IC50 (VR1/TRPV1 receptor; Table 2): 2710 nM; Ki [1, 6]: 47 nM
6 | COc1ccc(-c2nc(C(F)(F)F)ccc2CNC(=O)C(C)c2ccc(NS(C)(=O)=O)c(F)c2)cc1F (stereo not shown) [Example 254, 2-(3-fluoro-4-methylsulfonamido-phenyl)-N-[2-(3-fluoro-4-methoxy-phenyl)-6-trifluoromethyl-pyridin-3-ylmethyl]-propionamide] | 4.2 |  | 1.3 | inhibition at 0.1 µM (VR1/TRPV1 receptor; @ 0.1 μM, read-out: inhibition in percent, IC50 (human) after pH stimulus): 19%; inhibition at 1 µM (VR1/TRPV1 receptor; [4]): 63%
7 | CC(C(=O)NCc1ccc(C(F)(F)Cl)nc1OCc1cccnc1)c1ccc(NS(C)(=O)=O)c(F)c1 (stereo not shown) [Example 181, N-[6-(chloro-difluoro-methyl)-2-(pyridin-3-ylmethoxy)-pyridin-3-ylmethyl]-2-(3-fluoro-4-methylsulfonamido-phenyl)-propionamide] | 14.6 | 1070 | 5.6 | 
8 | C[C@H](C(=O)NCc1ccc(C(F)(F)F)nc1-c1ccc(F)c(Cl)c1)c1ccc(NS(C)(=O)=O)c(F)c1 [Example 120, (S)-N-[2-(3-chloro-4-fluoro-phenyl)-6-trifluoromethyl-pyridin-3-ylmethyl]-2-(3-fluoro-4-methylsulfonamido-phenyl)-propionamide] | 0.7 |  | 0.4 | inhibition at 1 µM (VR1/TRPV1 receptor; [4]): 51%
9 | CC(C(=O)NCc1ccc(C(F)(F)F)nc1N1CCN(c2ccc(C(F)(F)F)cc2)CC1)c1ccc(NS(C)(=O)=O)c(F)c1 (stereo not shown) [Example 222, 2-(3-fluoro-4-methylsulfonamido-phenyl)-N-{6-trifluoromethyl-2-[4-(4-trifluoromethyl-phenyl)-piperazin-1-yl]-pyridin-3-ylmethyl}propionamide] | 3.4 | 39.2 | 2.4 | 
10 | CC(C(=O)NCc1ccc(C(C)(C)C)cc1OC1CCCC1)c1ccc(NS(C)(=O)=O)c(F)c1 (stereo not shown) [Example 155, N-(4-tert-butyl-2-cyclopentyloxy-benzyl)-2-(3-fluoro-4-methylsulfonamido-phenyl)-propionamide] | 1.8 | 145 | 0.8 | 
11 | COc1cc(C(C)C(=O)NCc2ccc(C(F)(F)F)nc2N2CCC(C)CC2)ccc1NS(C)(=O)=O (stereo not shown) [Example 289, 2-(4-methylsulfonamido-3-methoxy-phenyl)-N-(4-methyl-6′-trifluoromethyl-3,4,5,6-tetrahydro-2H-[1,2′]bipyridinyl-3′-ylmethyl)-propionamide] | 2.5 |  | 3.3 | inhibition in percent, IC50 (human) after pH stimulus (VR1/TRPV1 receptor): ne @ 1 μM
12 | CC1CCC(COc2nc(C(F)(F)F)ccc2CNC(=O)C(C)c2ccc(NS(C)(=O)=O)c(F)c2)CC1 (stereo not shown) [Example 271, 2-(3-fluoro-4-methylsulfonamido-phenyl)-N-[2-(4-methyl-cyclohexylmethoxy)-6-trifluoromethyl-pyridin-3-ylmethyl]-propionamide] | 1 | 44.4 |  | Ki ([1]; Ki (rat) Cap., table 4, capsaicin): 1.1 nM
13 | CCCCOc1nc(C(C)(C)C)ccc1CNC(=O)C(C)c1ccc(NS(C)(=O)=O)c(F)c1 (stereo not shown) [Example 235, N-(2-butoxy-6-tert-butyl-pyridin-3-ylmethyl)-2-(3-fluoro-4-methylsulfonamido-phenyl)-propionamide] | 0.9 | 55 | 0.6 | 
14 | CC(C(=O)NCc1ccc(C(F)(F)F)nc1N1CCC(N2CCCCC2)CC1)c1ccc(NS(C)(=O)=O)c(F)c1 (stereo not shown) [Example 164, 2-(3-fluoro-4-methylsulfonamido-phenyl)-N-(6″-trifluoromethyl-3,4,5,6,3′,4′,5′,6′-octahydro-2H,2′H-[1,4′;1′,2″]terpyridin-3″-ylmethyl)-propionamide] |  |  |  | inhibition at 10 µM (vanilloid receptor (VR1); @ 10 μM): 84%; inhibition at 10 µM (VR1/TRPV1 receptor; [4]): 30%; inhibition at 25 µM (VR1/TRPV1 receptor; [4]): 28%; inhibition at 10 µM ([1]; @ 10 μM): 85%
15 | CC(C(=O)NCc1ccc(C(F)(F)F)nc1OCc1cccnc1)c1ccc(NS(C)(=O)=O)c(F)c1 (stereo not shown) [Example 211, 2-(3-fluoro-4-methylsulfonamido-phenyl)-N-[2-(pyridin-3-ylmethoxy)-6-trifluoromethyl-pyridin-3-ylmethyl]-propionamide] | 142 | 3440 | 30.3 | 
16 | CC(C(=O)NCc1ccc(C(F)(F)Cl)nc1N1CCN(c2ccccc2)CC1)c1ccc(NS(C)(=O)=O)c(F)c1 (stereo not shown) [Example 207] | 0.8 | 38.6 | 0.8 | 
17 | CC(C(=O)NCc1ccc(C(F)(F)F)nc1-c1ccc(Cl)c(Cl)c1)c1ccc(NS(C)(=O)=O)c(F)c1 (stereo not shown) [Example 250, N-[2-(3,4-dichloro-phenyl)-6-trifluoromethyl-pyridin-3-ylmethyl]-2-(3-fluoro-4-methylsulfonamido-phenyl)-propionamide] | 0.9 |  | 0.9 | inhibition at 1 µM (VR1/TRPV1 receptor; [4]): 51%; inhibition at 10 µM (VR1/TRPV1 receptor; [4]): 68%
18 | Cc1cc(C(C)C(=O)NCc2ccc(C(F)(F)F)nc2N2CCC(C)CC2)ccc1NS(C)(=O)=O (stereo not shown) [Example 196, 2-(4-methylsulfonamido-3-methyl-phenyl)-N-(4-methyl-6′-trifluoromethyl-3,4,5,6-tetrahydro-2H-[1,2′]bipyridinyl-3′-ylmethyl)-propionamide] | 0.6 |  | 0.4 | inhibition at 1 µM (VR1/TRPV1 receptor; [4]): 41%
19 | CC(C(=O)NCc1ncc(C(F)(F)F)cc1Cl)c1ccc(NS(C)(=O)=O)c(F)c1 (stereo not shown) [Example 77] |  |  |  | inhibition in percent, Ki (human) Cap. (vanilloid receptor (VR1); @ 10 μM): 21% @ 10 μM; inhibition in percent, IC50 (human) after pH stimulus (VR1/TRPV1 receptor): ne @ 1 μM; inhibition in percent, Ki (rat) Cap. ([1]; @ 10 μM): 57% @ 10 μM
20 | CC(C(=O)NCc1ccc(C(F)(F)F)nc1N(C)C)c1ccc(NS(C)(=O)=O)c(F)c1 (stereo not shown) [Example 85, N-(2-dimethylamino-6-trifluoromethyl-pyridin-3-ylmethyl)-2-(3-fluoro-4-methylsulfonamido-phenyl)-propionamide] | 19.1 | 2390 | 67.9 | 
21 | CC(C(=O)NCc1ccc(C(F)(F)F)nc1)c1ccc(NS(C)(=O)=O)c(F)c1 (stereo not shown) [Example 215, 2-(3-fluoro-4-methylsulfonamido-phenyl)-N-(6-trifluoromethyl-pyridin-3-ylmethyl)-propionamide] |  |  |  | inhibition at 10 µM (vanilloid receptor (VR1); @ 10 μM): 37%; inhibition at 25 µM (VR1/TRPV1 receptor; [4]): 15%; inhibition at 10 µM ([1]; @ 10 μM): 48%
22 | CC(C)Oc1nc(C(F)(F)F)ccc1CNC(=O)C(C)c1ccc(NS(C)(=O)=O)c(F)c1 (stereo not shown) [Example 20, 2-(3-fluoro-4-(methylsulfonamido)phenyl)-N-((2-isopropoxy-6-(trifluoromethyl)pyridin-3-yl)methyl)propanamide] |  |  |  | Ki (vanilloid receptor (VR1); [5]): 2.1 nM; IC50 (VR1/TRPV1 receptor; Table 2): 93 nM; Ki [1, 6]: 5.4 nM
23 | CCCCCCOc1nc(C(F)(F)F)ccc1CNC(=O)C(C)c1ccc(NS(C)(=O)=O)c(C)c1 (stereo not shown) [Example 257, N-(2-hexyloxy-6-trifluoromethyl-pyridin-3-ylmethyl)-2-(4-methylsulfonamido-3-methyl-phenyl)-propionamide] | 0.6 |  | 0.3 | inhibition at 1 µM (VR1/TRPV1 receptor; [4]): 67%
24 | CCS(=O)(=O)Nc1ccc(C(C)C(=O)NCc2ccc(C(F)(F)F)nc2N2CCC(C)CC2)cc1F (stereo not shown) [Example 287, 2-(4-ethanesulfonylamino-3-fluoro-phenyl)-N-(4-methyl-6′-trifluoromethyl-3,4,5,6-tetrahydro-2H-[1,2′]bipyridinyl-3′-ylmethyl)-propionamide] | 4.4 | 189 | 3.5 | 
